Our source for the TGI and GI50 values is PubChem BioAssay (NCI).

Structures are written as SMILES.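 All cell lines were grown in 96-well plates and treated with compound for 48 hours. At the GI50, growth is halved. At the TGI there is no net growth.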

What all share (test): NCI tumour cell line growth inhibition, 48 h
Assay [1] has as its system KM20L2 colon.
Assay [2] deals with DMS 114 small cell lung.
The test system of assay [3] is DLD-1 colon.
The test system of assay [4] is HL-60(TB) leukemia.
In assay [5] the test system is M14 melanoma.
The test system of assay [6] is M19-MEL melanoma.
Assay [7] concerns LOX IMVI melanoma.
Assay [8] has as its system EKVX NSCLC.
The test system of assay [9] is T-47D breast.
Assay [10] has as its system NCI/ADR-RES ovarian.
Assay [11] deals with BT-549 breast.
Assay [12] has as its system MDA-MB-435.

As for `O=C(c1ccccc1)c1c(CC(O)c2ccncc2)n(C(=O)c2ccccc2)c2ccccc12` (stereo not drawn), the TGI in assay [1] is 34 µM; in [2], 40.2 µM; in assay [3], above 100 µM; in assay [4], 39.9 µM; in assay [5], 30.8 µM; in assay [6], 33 µM.

With `O=C(NCCNCCO)c1cccc2ccc(-c3ccccc3)nc12`, the TGI in [7] is 10.5 µM; in assay [8], 19.7 µM; in [2], 19.8 µM; in assay [3] it was 19.5 µM; in assay [4] it was above 100 µM; in assay [5], 17.8 µM. The same compound showed a TGI in assay [6] of 15.7 µM.

As for `CC(C)(C)c1cc2nc(c1)C(C(F)(F)F)(C(F)(F)F)OB(Br)OC2(C(F)(F)F)C(F)(F)F`, the TGI in assay [7] was found to be 3.78 µM; in assay [1], 1.25 µM; in assay [8], 0.727 µM; in assay [2], 0.421 µM; in assay [3], 12.8 µM; in assay [5], 3.38 µM. In addition, in [6], the TGI came out at 12.2 µM.

On to `CC1=C(CC2C(=O)N(c3ccccc3)S(=O)(=O)NC2C)C(=O)N(c2ccccc2)S(=O)(=O)N1C` (stereo not drawn), for which the TGI in assay [7], in assay [1], in assay [8], in [2], in [3] and in assay [5] was above 100 µM throughout. In addition, the TGI in [6] is above 100 µM.

Turning to `ClC1=C(Cl)C(Cl)(Cl)c2c3c(c4c(c21)C(Cl)(Cl)C(Cl)=C4Cl)C(Cl)(Cl)C(Cl)=C3Cl`, the TGI in [7], in assay [1], in [8], in [2], in assay [4] and in [5] was above 100 µM each time.

On to `COc1ccc(-c2cc(=O)c3c(O)cccc3o2)c(OC)c1OC`, for which the TGI in assay [7], in assay [1], in [2], in assay [3], in assay [4] and in assay [5] was above 100 µM each time. The TGI in assay [6] was above 100 µM.

Take `O=C(O)CCNS(=O)(=O)c1ccc([N+](=O)[O-])cc1`: the TGI in assay [7], in assay [1], in [8], in assay [3], in assay [4] and in assay [5] was above 100 µM throughout. Moreover, the TGI in assay [6] is above 100 µM.

Take `CN1CCc2nc3sc(C(N)=O)c(N)c3c(-c3cccs3)c2C1`: the GI50 in assay [7] is 1.27 µM; in [9], 2.81 µM; in assay [10], 3.69 µM; in assay [11], 3.26 µM; in [8], 3.54 µM; in [12], 3.13 µM. Moreover, the values for the GI50 in assay [4] and in [5] were 2.5 µM and 4.19 µM, respectively. The TGI in [7] is above 100 µM; in [9], above 100 µM; in assay [10] it was 98.8 µM; in assay [11], 35.5 µM; in [8], above 100 µM; in assay [12], above 100 µM. The results for the TGI in assay [4] and in assay [5] were 6.97 µM and 19.4 µM, respectively.

As for `Cc1ccccc1-n1c(N)c(-c2nc3ccccc3[nH]2)sc1=S`, the TGI in [7] was 52.6 µM; in [8], 88.5 µM; in [2], 59 µM; in assay [3], 64.6 µM; in [4] it was 66.6 µM; in assay [5] it was 36.5 µM. Further, in [6], the TGI turned out to be 50.5 µM.

Take `COc1ccc(OC(=O)CC2Cc3cc(OC)c(OC)c(OC)c3-c3ccc(SC)c(=O)cc32)cc1` (stereo not drawn): the TGI in assay [7] was 17.8 µM; in [8] it was above 100 µM; in [2] it was 5.52 µM; in assay [3], above 34.6 µM; in assay [4], 2.35 µM; in [5], above 100 µM. In assay [6], the TGI is above 100 µM.

Consider `COc1ccc2c(c1)C(=O)c1c-2c(OCCN(C)C)nc2ccccc12`, for which the GI50 in assay [7] was 1.54 µM; in assay [9], 4.05 µM; in assay [10], 3.05 µM; in assay [11], 12 µM; in [8] it was 2.05 µM; in assay [12], 2.58 µM. Besides, the results for the GI50 in [4] and in assay [5] were 3.19 µM and 3.85 µM, respectively. The TGI was 4.91 µM in [7]; 18.3 µM in assay [9]; 14.5 µM in assay [10]; 26 µM in assay [11]; 7.8 µM in [8]; 10.1 µM in [12]. The TGI in assay [4] was found to be 15.4 µM; in assay [5], 15 µM.

Consider `CC1=C(C(=O)Nc2ccc(Cl)c(Cl)c2)C(c2ccc([N+](=O)[O-])cc2)C(C(=O)Nc2ccc(Cl)c(Cl)c2)=C(C)N1`, for which the TGI in assay [7] is 4.02 µM; in [1], 4.3 µM; in assay [8], 15.4 µM; in [2] it was 9.66 µM; in assay [3], above 41.7 µM; in assay [5] it was 3.82 µM. This compound also yielded a TGI in assay [6] of 3.97 µM.

Take `c1cc(N2CCN(c3ccc(C4=NCCCN4)cc3)CC2)ccc1C1=NCCCN1`: the TGI in assay [7] was above 77.9 µM; in assay [9], above 100 µM; in assay [10] it was above 100 µM; in [11], above 100 µM; in assay [8] it was above 100 µM; in [12], above 20.3 µM. For the same compound, the TGI in assay [4] is above 89 µM; in assay [5] it was above 100 µM. Besides, the GI50 in assay [9], in assay [10], in assay [11], in [8] and in assay [5] was above 100 µM each time.

As for `C1CSCCSCCCSCCSCCCSCCSCCCSCCSC1`, the TGI in assay [7], in assay [9], in assay [10], in assay [11], in assay [8] and in assay [12] was above 100 µM each time. For the same compound, the TGI in [4] and in assay [5] was above 100 µM in each case.

As to `Cn1ccnc1Oc1ccc(Cl)cc1`, the TGI in [7] was determined as 36.6 µM; in [9], 14.3 µM; in [10], 49 µM; in assay [11] it was 65.7 µM; in assay [8], 49.1 µM; in [12] it was 25.1 µM. Further, the values for the TGI in [4] and in assay [5] were 11.1 µM and 37.2 µM, respectively.

In the case of `C[n+]1c2ccccc2nc2c(N)cc(N)cc21`, the GI50 is 18 µM in [7]; 3.95 µM in [9]; 83.3 µM in assay [10]; 2.62 µM in assay [11]; 8.04 µM in assay [8]; 15.9 µM in assay [12]. In addition, the GI50 in assay [4] is 6.39 µM; in [5], 19.1 µM. For the same compound, the TGI in assay [7] is 94 µM; in [9], 40.9 µM; in [10], above 100 µM; in assay [11], 12.5 µM; in assay [8] it was above 100 µM; in assay [12] it was 41.5 µM. In addition, the TGI in assay [4] worked out at 35.8 µM; in assay [5] it was 76.3 µM.

Consider `Oc1cccc2c1NCCC2`, for which the GI50 in assay [7] is 0.119 µM; in [9], 0.581 µM; in assay [10], 1.25 µM; in assay [11], 0.541 µM; in assay [8], 1.78 µM; in assay [12], 0.122 µM. Besides, the GI50 was 0.194 µM in assay [4] and 0.142 µM in assay [5]. Besides, the TGI is above 36.7 µM in assay [7]; 96.2 µM in assay [9]; 30.4 µM in assay [10]; above 100 µM in assay [11]; above 100 µM in assay [8]; above 100 µM in [12]. Further, the figures for the TGI in [4] and in assay [5] were 7.84 µM and 15.6 µM, respectively.

For `O=Nc1c(-c2c(O)[nH]c3ncccc23)[nH]c2ccccc12`, the GI50 in [7] is 5.32 µM; in [9], 2.99 µM; in assay [10], above 100 µM; in [11] it was 5.41 µM; in assay [8], 1.32 µM; in [12] it was above 100 µM. The GI50 in [4] is 7.58 µM; in [5] it was 10.8 µM. Besides, the TGI in [7], in [9], in assay [10], in assay [11], in assay [8] and in assay [12] was above 100 µM in each case. The TGI in assay [4] and in assay [5] was above 100 µM in each case.

Take `COC(=O)c1cc(-c2ccc(OC)c(OC)c2)[nH]c1N/N=C/c1c(Cl)cccc1Cl`: the GI50 in assay [7] was 0.837 µM; in assay [9], 3.99 µM; in assay [10], 0.557 µM; in [11], 0.887 µM; in assay [8] it was 0.708 µM; in assay [12], 0.127 µM. In addition, the figures for the GI50 in assay [4] and in assay [5] were 0.25 µM and 0.523 µM, respectively. Also, the TGI was found to be 13 µM in assay [7]; 92.5 µM in [9]; 9.01 µM in assay [10]; 3.48 µM in assay [11]; 19.5 µM in [8]; 0.562 µM in assay [12]. Also, the TGI in [4] came to 0.531 µM; in [5], 5.2 µM.

Turning to `O=C(NNS(=O)(=O)c1ccc(Cl)cc1Cl)c1cccnc1Nc1ccc(Cl)cc1`, the GI50 was 21.1 µM in assay [7]; 10.8 µM in assay [9]; 23.4 µM in assay [10]; 16.8 µM in assay [11]; 26.1 µM in assay [8]; 27.3 µM in [12]. In addition, the values for the GI50 in assay [4] and in [5] were 23.8 µM and 19 µM, respectively. Moreover, the TGI was 46.5 µM in assay [7]; 50.7 µM in assay [9]; 76.5 µM in assay [10]; 35 µM in [11]; above 100 µM in [8]; 81.7 µM in [12]. The TGI in assay [4] is 44.4 µM; in assay [5], 38.7 µM.

In the case of `C[C@@H]1Cc2cc(O)ccc2[C@H]2CC[C@]3(C)/C(=C/COCCN(C)C)CC[C@H]3[C@H]12` (tested in a mixture with another compound), the GI50 in [7] is 0.187 µM; in assay [9], 0.122 µM; in assay [10], 0.192 µM; in [11] it was 0.294 µM; in [8], 0.145 µM; in assay [12], 0.268 µM. Further, the GI50 was 0.244 µM in assay [4] and 0.381 µM in assay [5]. Also, the TGI turned out to be 0.389 µM in assay [7]; 0.679 µM in assay [9]; 0.419 µM in [10]; 0.8 µM in [11]; 0.472 µM in [8]; 0.875 µM in assay [12]. For the same compound, the TGI was 0.628 µM in [4] and 1.44 µM in assay [5].

Turning to `CC1=NN(c2ccccc2)C(=O)/C1=C\c1ccc([N+](=O)[O-])cc1`, the TGI in assay [7] was 48.1 µM; in [1] it was above 100 µM; in [8], above 100 µM; in [2], 50 µM; in assay [3], above 100 µM; in assay [4], 56.2 µM. For the same compound, the TGI in assay [5] is above 100 µM.

Consider `COc1cc2c(cc1F)C(c1ccccc1Cl)=Nc1c(n[nH]c1C)N2`, for which the GI50 in [7] is 0.94 µM; in assay [9], 1.59 µM; in assay [10], 0.465 µM; in assay [11], 2.7 µM; in [8], 2.84 µM; in assay [12], 0.172 µM. The GI50 in [4] is 0.838 µM; in assay [5], 0.911 µM. For the same compound, the TGI in assay [7] amounted to 13.1 µM; in assay [9], 26.4 µM; in assay [10], 29.5 µM; in assay [11], 20.5 µM; in assay [8], 18.4 µM; in [12], 19.1 µM. For the same compound, the TGI was determined as 20.8 µM in [4] and 22 µM in [5].

Take `O=C(CN1N=C(c2ccc(F)cc2)CCC1=O)Nc1nc2ccccc2s1`: the GI50 in [7] is 0.179 µM; in assay [9] it was above 100 µM; in [10], above 28.2 µM; in [11], 4.81 µM; in assay [8] it was 2.82 µM; in assay [12], above 73.5 µM. The GI50 in assay [4] is 3.68 µM; in assay [5], 33.2 µM. For the same compound, the TGI in assay [7] was 0.344 µM; in assay [9] it was above 100 µM; in assay [10] it was above 100 µM; in assay [8] it was above 100 µM; in assay [12], above 100 µM; in assay [4], 19 µM. For the same compound, the TGI in [5] was above 100 µM.
